Values of other authors in US11510895B2, “Compositions and formulations including cabazitaxel and human serum albumin” (Zhuhai Beihai Biotech Co., Ltd., priority 2016, dated 2022).

Legend:
human serum proteins = conditions: in vitro
human serum albumin = human serum albumin (Homo sapiens, UniProt P02768); conditions: in vitro
Sequence of human serum albumin (P02768 25-609): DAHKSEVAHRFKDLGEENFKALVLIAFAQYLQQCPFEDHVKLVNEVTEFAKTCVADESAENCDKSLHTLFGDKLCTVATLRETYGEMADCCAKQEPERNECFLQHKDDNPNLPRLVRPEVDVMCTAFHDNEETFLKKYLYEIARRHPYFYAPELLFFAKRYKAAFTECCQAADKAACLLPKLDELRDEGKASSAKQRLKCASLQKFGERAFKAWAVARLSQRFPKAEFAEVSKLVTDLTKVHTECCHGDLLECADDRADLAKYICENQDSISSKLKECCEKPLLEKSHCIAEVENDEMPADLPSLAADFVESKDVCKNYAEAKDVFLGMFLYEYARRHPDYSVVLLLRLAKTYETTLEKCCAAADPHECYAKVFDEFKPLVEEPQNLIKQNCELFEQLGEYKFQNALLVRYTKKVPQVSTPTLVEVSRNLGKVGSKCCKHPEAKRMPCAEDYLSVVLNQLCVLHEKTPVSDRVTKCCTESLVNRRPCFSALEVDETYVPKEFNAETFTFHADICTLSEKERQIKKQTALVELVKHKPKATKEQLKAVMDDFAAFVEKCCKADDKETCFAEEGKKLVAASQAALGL

CO[C@H]1C(=O)[C@]2(C)[C@@H](OC)C[C@H]3OC[C@@]3(OC(C)=O)[C@H]2[C@H](OC(=O)c2ccccc2)[C@]2(O)C[C@H](OC(=O)[C@H](O)[C@@H](NC(=O)OC(C)(C)C)c3ccccc3)C(C)=C1C2(C)C [cabazitaxel]
saturability of the binding to human serum proteins (human serum proteins): not saturable up to 50,000
bound to human serum albumin (human serum albumin): 82%
solubility in alcohol: soluble
solubility in water: practically insoluble
